Consider three molecules from patent US11655450B2, “Method for inducing differentiation of stem cell into dopaminergic neural precursor cell” (S-BIOMEDICS, priority 2019, dated 2023).

In one experiment the test system is FOXA2 and/or LMX1A. Nature of the experiment: Immunocytochemistry of FOXA2 and/or LMX1A expression during differentiation into dopaminergic neural precursor cells. The experiment is classed as cell-based, human. As to the method:
Cells were fixed for 10 min in a 4% paraformaldehyde solution.
In order to smoothly penetrate into the cytoplasm, […] incubated with 0.1% Trition X-100 (in PBS) for 15 min and then with 2% bovine serum albumin (BSA, in PBS) for 1 hour at room temperature.
Subsequently, the primary antibodies (see Table 1, below) were allowed to bind to the cells at 4° C. Secondary antibodies suitable for the respective primary antibody species (see Table 1, below) were used to confirm the primary antibody-bound cells.
Finally, cell nuclei were imaged. In this regard, the cells were incubated with 4′, […] (DAPI) in PBS for 10 min to stain the nuclei which were then imaged under a fluorescence microscope. Important markers were identified and analyzed.
The cells were differentiated into dopaminergic neural precursor cells in the same manner as the method of the present invention, with the exception of treating the cells with SAG and CHIR99021 at respective concentrations of 0.5 μM and 1.0 μM, or 1.0 μM and 1.5 μM, instead of 1.0 μM and 2.0 μM. With the expression of FOXA2 and/or LMX1A, this method was compared to the method of the present disclosure.

A further experiment has as its system stem cells. As to the kind of experiment: Cell adhesion test with ECM. The experiment is classed as cell-based, human. As to the method: With respect to CELLstart and various concentrations (2-7 μg/mL) of ECM (Laminin 521), stem cells were cultured using the same protocol as in the above Examples to conduct a cell adhesion test.

As to `Cc1c[nH]c(-c2cnc(NCCNc3ccc(C#N)cn3)nc2-c2ccc(Cl)cc2Cl)n1` [CHIR99021, 6-[[2-[[4-(2,4-dichlorophenyl)-5-(5-methyl-1H-imidazol-2-yl)-2-pyrimidinyl]amino]ethyl]amino]-3-pyridinecarbonitrile], the “expression of LMX1A and En-1” value in the experiment with FOXA2 and/or LMX1A (markers for dopaminergic neural precursor cells, as illustrated in the Example section) was “upregulate the expression of LMX1A and En-1”.

With “Laminin-521: ECM (Laminin 521) used to coat culture dishes”, the cell adhesion entry is “too poor adhesion to conduct the test” with stem cells (2 μg/mL and 3 μg/mL); “relatively high adhesion” in the experiment on stem cells (4 μg/mL and 5 μg/mL). In addition, in the experiment on stem cells (6 μg/mL and 7 μg/mL), the “cell state on ECM” value is “spontaneous differentiation at high frequency”. As to `CNC1CCC(N(Cc2cccc(-c3ccncc3)c2)C(=O)c2sc3ccccc3c2Cl)CC1.Cl.Cl.O.O` (centres unmarked) [SAG], the “expression of FOXA2” value in the experiment on FOXA2 and/or LMX1A (marker for dopaminergic neural precursor cells, as explained in the Example section) is on record as “upregulate the expression of FOXA2”.
